Results taken from PubChem BioAssay AID2060889 (Molecular Pharmacology Branch, DTP, NCI, 2025).
pIC50: −log10 of the molar value.

Test system: LG0567-F671-PDC complex spheroids viability
Assay: Anticancer human tumor LG0567-F671-PDC patient-derived lung adenocarcinoma cell line growth inhibition [RAS]
Settings: for pIC50: curve of first compound; for viability, T/C: stronger effect = lower value; active means viability on the fitted dose curve at most 10% of control; inactive means the rest
Method in brief: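 Tumour cells grown as complex spheroids with HUVEC endothelial cells and mesenchymal stem cells, treated with RAS pathway inhibitor combinations. Each agent spans half-log steps from near clinical Cmax, or 10 microM where Cmax is unknown.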

[1] = second compound 0.00316 µM, first compound 0.0316 µM
[2] = second compound 0.00316 µM, first compound 0.1 µM
[3] = second compound 0.00316 µM, first compound 0.316 µM
[4] = second compound 0.00316 µM, first compound 1 µM
[5] = second compound 0.00316 µM, first compound 3.16 µM
[6] = second compound 0.00316 µM, first compound 10 µM
[7] = second compound 0.01 µM, first compound 0.0316 µM
[8] = second compound 0.01 µM, first compound 0.1 µM
[9] = second compound 0.01 µM, first compound 0.316 µM
[10] = second compound 0.01 µM, first compound 1 µM
[11] = second compound 0.01 µM, first compound 3.16 µM
[12] = second compound 0.01 µM, first compound 10 µM
[13] = second compound 0.0316 µM, first compound 0.0316 µM
[14] = second compound 0.0316 µM, first compound 0.1 µM
[15] = second compound 0.0316 µM, first compound 0.316 µM
[16] = second compound 0.0316 µM, first compound 1 µM
[17] = second compound 0.0316 µM, first compound 3.16 µM
[18] = second compound 0.0316 µM, first compound 10 µM
[19] = second compound 0.1 µM, first compound 0.0316 µM
[20] = second compound 0.1 µM, first compound 0.1 µM
[21] = second compound 0.1 µM, first compound 0.316 µM
[22] = second compound 0.1 µM, first compound 1 µM
[23] = second compound 0.1 µM, first compound 3.16 µM
[24] = second compound 0.1 µM, first compound 10 µM
[25] = second compound 0.316 µM, first compound 0.0316 µM
[26] = second compound 0.316 µM, first compound 0.1 µM
[27] = second compound 0.316 µM, first compound 0.316 µM
[28] = second compound 0.316 µM, first compound 1 µM
[29] = second compound 0.316 µM, first compound 3.16 µM
[30] = second compound 0.316 µM, first compound 10 µM
[31] = second compound 1 µM, first compound 0.0316 µM
[32] = second compound 1 µM, first compound 0.1 µM
[33] = second compound 1 µM, first compound 0.316 µM
[34] = second compound 1 µM, first compound 1 µM
[35] = second compound 1 µM, first compound 3.16 µM
[36] = second compound 1 µM, first compound 10 µM
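Further: spheroids exposed to compound for seven days before readout.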
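Wherever pIC50 is given: luminescence signal used as a proxy for viable cells.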

CC(Nc1ccc2c(c1)OCCn1cc(N3C(=O)OCC3C(F)F)nc1-2)C(N)=O (stereo unspecified) + C=CC(=O)N1CCN(c2nc(OCC3CCCN3C)nc3c(F)c(-c4nc(N)cc(C)c4C(F)(F)F)c(Cl)cc23)C(C)C1
> 7.50: pIC50 (second compound 0.00316 µM) | pIC50 (second compound 0.01 µM) | pIC50 (second compound 0.0316 µM) | pIC50 (second compound 0.1 µM) | pIC50 (second compound 0.316 µM) | pIC50 (second compound 1 µM)
active: viability, T/C [3] 10.1% | viability, T/C [4] 7.83% | viability, T/C [5] 7.01% | viability, T/C [6] 5.88% | viability, T/C [8] 8.85% | viability, T/C [9] 8.39% | viability, T/C [10] 5.85% | viability, T/C [11] 5.99% | viability, T/C [12] 4.79% | viability, T/C [14] 9.26% | viability, T/C [15] 7.97% | viability, T/C [16] 5.73% | viability, T/C [17] 5.76% | viability, T/C [18] 4.64% | viability, T/C [20] 8.09% | viability, T/C [21] 6.28% | viability, T/C [22] 5.63% | viability, T/C [23] 5.99% | viability, T/C [24] 4.82% | viability, T/C [26] 8.03% | viability, T/C [27] 7.03% | viability, T/C [28] 5.34% | viability, T/C [29] 6.43% | viability, T/C [30] 5.3% | viability, T/C [32] 9.66% | viability, T/C [33] 6.71% | viability, T/C [34] 6.57% | viability, T/C [35] 7.01% | viability, T/C [36] 5.23%
inactive: viability, T/C [1] 15.2% | viability, T/C [2] 10.8% | viability, T/C [7] 12% | viability, T/C [13] 10.2% | viability, T/C [19] 13% | viability, T/C [25] 10.5% | viability, T/C [31] 11.4%

C[C@@H](NC(=O)c1ncnc(N)c1Cl)c1ncc(C(=O)Nc2cc(C(F)(F)F)c(Cl)cn2)s1 + C=CC(=O)N1CCN(c2nc(OCC3CCCN3C)nc3c(F)c(-c4nc(N)cc(C)c4C(F)(F)F)c(Cl)cc23)C(C)C1
> 7.50: pIC50 (second compound 0.00316 µM) | pIC50 (second compound 0.01 µM) | pIC50 (second compound 0.0316 µM) | pIC50 (second compound 0.1 µM) | pIC50 (second compound 0.316 µM) | pIC50 (second compound 1 µM)
inactive: viability, T/C [1] 23% | viability, T/C [2] 21.9% | viability, T/C [3] 19.2% | viability, T/C [4] 25.3% | viability, T/C [5] 27.4% | viability, T/C [6] 22.3% | viability, T/C [7] 18.3% | viability, T/C [8] 16.7% | viability, T/C [9] 24.5% | viability, T/C [10] 19.2% | viability, T/C [11] 22.8% | viability, T/C [12] 20.4% | viability, T/C [13] 17.1% | viability, T/C [14] 17.3% | viability, T/C [15] 19.1% | viability, T/C [16] 19.3% | viability, T/C [17] 20.1% | viability, T/C [18] 18% | viability, T/C [19] 16.3% | viability, T/C [20] 14.9% | viability, T/C [21] 15.8% | viability, T/C [22] 18.3% | viability, T/C [23] 19% | viability, T/C [24] 18.5% | viability, T/C [25] 15.5% | viability, T/C [26] 16.1% | viability, T/C [27] 16.2% | viability, T/C [28] 18.5% | viability, T/C [29] 22.2% | viability, T/C [30] 23% | viability, T/C [31] 16.7% | viability, T/C [32] 17.4% | viability, T/C [33] 20.4% | viability, T/C [34] 17.2% | viability, T/C [35] 19.8% | viability, T/C [36] 20.8%

O=C(c1ccc(F)c(F)c1Nc1ccc(I)cc1F)N1CC(O)([C@@H]2CCCCN2)C1 + C=CC(=O)N1CCN(c2nc(OCC3CCCN3C)nc3c(F)c(-c4nc(N)cc(C)c4C(F)(F)F)c(Cl)cc23)C(C)C1
> 8.50: pIC50 (second compound 0.00316 µM) | pIC50 (second compound 0.01 µM) | pIC50 (second compound 0.0316 µM) | pIC50 (second compound 0.1 µM) | pIC50 (second compound 0.316 µM) | pIC50 (second compound 1 µM)
active: viability, T/C [2] 8.75% | viability, T/C [3] 3.51% | viability, T/C [4] 1.58% | viability, T/C [7] 10.7% | viability, T/C [8] 5.03% | viability, T/C [9] 3.8% | viability, T/C [10] 1.56% | viability, T/C (second compound 0.0316 µM, first compound 0.01 µM) 8.27% | viability, T/C [13] 7.53% | viability, T/C [14] 5.24% | viability, T/C [15] 3.75% | viability, T/C [16] 1.45% | viability, T/C (second compound 0.1 µM, first compound 0.01 µM) 9.3% | viability, T/C [19] 6.61% | viability, T/C [20] 5.01% | viability, T/C [21] 2.96% | viability, T/C [22] 1.42% | viability, T/C (second compound 0.316 µM, first compound 0.01 µM) 9.6% | viability, T/C [25] 6.94% | viability, T/C [26] 5.35% | viability, T/C [27] 3.61% | viability, T/C [28] 1.71% | viability, T/C [31] 7.82% | viability, T/C [32] 5.94% | viability, T/C [33] 4.07% | viability, T/C [34] 1.77%
inactive: viability, T/C (second compound 0.00316 µM, first compound 0.00316 µM) 15.6% | viability, T/C (second compound 0.00316 µM, first compound 0.01 µM) 16.9% | viability, T/C [1] 8.91% | viability, T/C (second compound 0.01 µM, first compound 0.00316 µM) 12.4% | viability, T/C (second compound 0.01 µM, first compound 0.01 µM) 11.6% | viability, T/C (second compound 0.0316 µM, first compound 0.00316 µM) 11.8% | viability, T/C (second compound 0.1 µM, first compound 0.00316 µM) 11.5% | viability, T/C (second compound 0.316 µM, first compound 0.00316 µM) 12.2% | viability, T/C (second compound 1 µM, first compound 0.00316 µM) 12.3% | viability, T/C (second compound 1 µM, first compound 0.01 µM) 10.1%
